Reference: US11447533B2, “Antimicrobial and anticancer peptides and conjugates and compositions, methods, articles and kits relating thereto” (George Mason Research Foundation, Inc., priority 2018, dated 2022)

Columns and labels:
[1] = test system: B. cereus ATCC 11778; experiment: Antimicrobial efficacy (resazurin virtual colony count); assay type: cell-based, Bacillus cereus; conditions: DPBS
Experimental: Antimicrobial Studies. The phosphate buffers used for antimicrobial assays were supplemented with non-nitrogenous energy source, 0.1% (w/v) glucose. To conduct antimicrobial assays, bacterial strains were first suspended in respective buffers. E. coli (ATCC 25922) and B. cereus (ATCC 11778) were grown in MHB II up to OD600 nm˜1 and stored as frozen stock in 20% glycerol at −80° C. Occasionally they were thawed and enumerated by serial dilution and spreading on MHB II agar plates. The concentrations of the frozen stocks of E. coli and B. cereus strains were 1.0-1.1*10^8 CFU/mL with OD600 nm˜0.8. In case of other bacterial strains, they were grown on the days of experiment up to OD600 nm˜1-1.5 and then adjusted to OD600 nm˜0.8. The growth media of the drug-resistant bacterial strains were supplemented with few of the respective antibiotics against which they are resistant. […]
Antimicrobial assays in different phosphate buffers and serum were conducted by adapting, with necessary modifications a fast high-throughput method based on Virtual Colony Count technique and later modified by incorporating the use of resazurin. At first serial dilution of a microbial strain in respective buffer was poured in the wells of 96 well polypropylene microplate and was then added with same volume of 2× MHB II supplemented with 80 μg/mL resazurin and incubated at 35° C. in a Gemini EM Microplate Reader (Molecular Devices) overnight with intermittent shaking. As the microbe grows it reduces non-fluorescent resazurin to fluorescent resorufin and the fluorescent intensity of each well were measured (excitation=570 nm, emission=590 nm) each 5 min for 15 hours. The time (t, min) to reach a certain fluorescence (RFU=20000 with respect to the starting fluorescence) was correlated with the initial bacterial concentration (in CFU/mL) in the particular well to obtain a calibration plot of the form: Log([Bacteria],CFU/mL)=b+m*t Equation 4: […]

[2] = Endotoxin binding: competitive displacement of BODIPY TR-Cadaverine from LTA; design: species or system Staphylococcus aureus; conditions: 5 μM peptide; for LTA binding (BC displacement), in words: 10 μM BC, 10 μg/mL LTA, 10 mM Na-PO4; for higher degree of LTA binding than parent peptide: vs ATRA-1 / ATRA1-R3W2
Experimental: FIGS. 2A-2B are graphs showing endotoxin binding. The figures depict the competitive displacement of BC from LPS/LTA by the peptides. 5 μM of each peptide was incubated with 10 μM BC and 10 μg/mL LPS from E. coli (0111:B4) or LTA from S. aureus. Fluorescence intensity was measured at excitation=580 nm and emission=620 nm. 10 μM BC without endotoxin was used as 100% displacement while 10 μM BC with 10 μg/mL LPS/LTA without any peptide as 0% displacement and the % displacement of BC by each peptide was calculated accordingly. […] had been used as a positive control. The horizontal dotted line coincides with the % displacement of BC by ATRA1 on the y-axis.
FIGS. 6A-6B are graphs showing endotoxin (LPS (FIG. 6A) and LTA (FIG. 6B)) binding. Competitive displacement of BC from LPS/LTA. In each case, 5 μM peptide was incubated with 10 μM BC and 10 μg/mL LPS from E. coli (0111:B4) or LTA from S. aureus. Fluorescence intensity was measured using excitation=580 nm and emission=620 nm. As a positive control 10 μM BC without endotoxin was used as a reference for 100% displacement while 10 μM BC with 10 μg/mL LPS/LTA without any peptide as a negative control and a reference for 0% displacement. These controls were used to calculate % BC displacement for each peptide.
Endotoxin Binding. The binding of endotoxin (LPS/LTA) was evaluated using a fluorogenic conjugateBODIPY TR-Cadaverine (BC). BC binds endotoxin loses its fluorescence. The peptide competitively displaces BC from endotoxin and the fluorescence is reestablished. Competitive inhibition of endotoxin-BC binding was utilized due to presence of peptides already in complexion with endotoxin. 25 μL of 20 μM of peptides in 10 mM Na—PO4 buffer were incubated with 25 μL of LPS (40 μg/mL) or LTA (40 μg/mL) for 15 min and then added with 50 μL of BC (20 uM). Peptides bind to LPS or LTA and competitively prevents BC bind to the endotoxin. BC loses its fluorescence on binding to endotoxin. The fluorescence intensity of the unbound BC was measured at excitation=580 nm and emission=620 nm.
BC contains two functional moieties: BODIPY (boron-dipyrromethene) and cadaverine connected via a carboxamide. BODIPY is the fluorophore of BC and fluoresces in the free state in solution but loses fluorescence when bound to LPS/LTA. The competitive displacement of BC from LPS/LTA by AMPs and thus regeneration of the fluorescence has frequently been used to estimate the binding strength of AMPs with LPS/LTA. In the present studies, 5 μM of each peptide was used to displace BC from LPS/LTA. […] Such observation contradicts the initial assumption that substitution of Lys with arginine would result in increased efficiency of LPS binding. However, with sequential substitutions of Lys with arginine, starting with ATRA1-AR, peptide variants show increased LPS binding with each additional arginine substitution. In terms of LPS binding: ATRA1-AR<ATRA1-AR2<ATRA1-AR3. In ATRA1-R3, the lysine residues at 9th, 5th and 1st positions of ATRA1 were substituted with arginine. In ATRA1-R6 all of the lysine residues were replaced with arginine.

Row | Sequence | antimicrobial efficacy, in words [1] | LTA binding (BC displacement), in words [2] | higher degree of LTA binding than parent peptide [2] [fold]
1 | KRFKKFFKKLK (SEQ ID NO: 2) [ATRA1, first 11 residues of NA-CATH] | somewhat effective | – | –
2 | KRFKKFFKKLKNSVKKRAKKFFKKPK (SEQ ID NO: 53) [NA-CATH26, first 26 residues of NA-CATH] | – | bound LTA to a significantly lower degree than NA-CATH | –
3 | KRFKKFFKKLKGGVIGVTFPF (SEQ ID NO: 38) [ATRA1-HYD, ATRA1 with hydrophobic tail of NA-CATH joined at the C-terminus by a short -GG- segment] | – | – | ~2
4 | RRWKRFFKRWKGGVIGVTFPF (SEQ ID NO: 50) [ATRA1-R3W2-HYD, ATRA1-R3W2 with hydrophobic tail of NA-CATH joined by -GG-] | – | – | ~2
5 | KRAKKFFKKLK (SEQ ID NO: 4) [ATRA1-A] | not effective | significantly lower LTA binding than ATRA1 | –
6 | RRWKRFFKRWK (SEQ ID NO: 15) [ATRA1-R3W2] | – | far effective than ATRA1 in binding LTA | –
